Assays:
Rattus norvegicus [1] = experiment: Antiinflammatory activity in Wistar rat assessed as inhibition of carrageenan-induced paw edema at 10 mg/kg, po administered 1 hr before carrageenan challenge and measured 2 hrs post carrageenan challenge relative to untreated control; type: functional
Rattus norvegicus [2] = experiment: Antiinflammatory activity in Wistar rat assessed as inhibition of carrageenan-induced paw edema at 10 mg/kg, po administered 1 hr before carrageenan challenge and measured 4 hrs post carrageenan challenge relative to untreated control; type: functional

Structure (SMILES)	inhibition in vivo at 10 mg/kg (Rattus norvegicus [1])	inhibition in vivo at 10 mg/kg (Rattus norvegicus [2])
NC(=O)c1c(-c2ccccc2)cc(C(F)(F)F)c2c1N=C(c1ccco1)N1CCN=C21	31%	30%
NC(=O)c1c(C(F)(F)F)cc(-c2ccccc2)c2c1N=C(c1ccco1)N1CCN=C21	29%	28%
NC(=O)c1c(-c2ccccc2)cc(C(F)(F)F)c2c1N=C(c1ccc(O)cc1)N1CCN=C21	61%	60%
NC(=O)c1c(C(F)(F)F)cc(-c2ccccc2)c2c1N=C(c1ccc(O)cc1)N1CCN=C21	59%	57%
NC(=O)c1c(-c2ccccc2)cc(C(F)(F)F)c2c1N=C(c1cccs1)N1CCN=C21	25%	24%
NC(=O)c1c(C(F)(F)F)cc(-c2ccccc2)c2c1N=C(c1cccs1)N1CCN=C21	34%	33%
COc1ccc2c(c1)c(CC(=O)O)c(C)n2C(=O)c1ccc(Cl)cc1 [INDOMETHACIN]	79%	75%

Source: ChEMBL document CHEMBL1275281, “Synthesis, anti-inflammatory evaluation and docking studies of some new fluorinated fused quinazolines” (2010)
